This is an account of results in PubChem BioAssay AID200 (DTP/NCI, 2004).

The test system of this assay is B6C3F1 mice, B16 melanoma ip, median survival T/C. Nature of the assay: NCI In Vivo Anticancer Drug Screen. Data for tumor model B16 Melanoma (intraperitoneal) in B6C3F1 mice. The conditions noted are these: endpoint: median survival time, higher = longer survival. In outline: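 Antitumor effect was judged in mice with transplanted tumors by dividing the treated group's survival measure by that of vehicle controls.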

Setting [1] is: dose: 12.5 mg/kg/injection, schedule: Q01DX009 (ip), vehicle: saline with Tween-80.
[2] abbreviates: dose: 25.0 mg/kg/injection, schedule: Q01DX009 (ip), vehicle: saline with Tween-80.
The mark [3] stands for this setting: dose: 50.0 mg/kg/injection, schedule: Q01DX009 (ip), vehicle: saline with Tween-80.
[4] abbreviates: dose: 100.0 mg/kg/injection, schedule: Q01DX009 (ip), vehicle: saline with Tween-80.
Setting [5] is: dose: 200.0 mg/kg/injection, schedule: Q01DX009 (ip), vehicle: saline with Tween-80.
Where [6] appears, read: dose: 400.0 mg/kg/injection, schedule: Q01DX009 (ip), vehicle: saline with Tween-80.
Setting [7] is: dose: 6.25 mg/kg/injection, schedule: Q01DX009 (ip), vehicle: saline with Tween-80.
The mark [8] stands for this setting: dose: 12.5 mg/kg/injection, schedule: Q01DX009 (ip), vehicle: water.
Setting [9] is: dose: 6.25 mg/kg/injection, schedule: Q01DX009 (ip), vehicle: Klucel (hydroxypropylcellulose) (HPC).
Setting [10] is: dose: 12.5 mg/kg/injection, schedule: Q01DX009 (ip), vehicle: Klucel (hydroxypropylcellulose) (HPC).
[11] abbreviates: dose: 25.0 mg/kg/injection, schedule: Q01DX009 (ip), vehicle: Klucel (hydroxypropylcellulose) (HPC).

Several values for one entry are separate records, joined by “and”; a condition that tells them apart may be missing. Equal values may be shown once. Inconclusive results and toxic doses are left out.

In the case of `Cc1ccc(N=NN(C)C)c2cccnc12`, the T/C is 106 % of control (dose: 3.13 mg/kg/injection, schedule: Q01DX009 (ip), vehicle: other); 95 % of control (dose: 6.25 mg/kg/injection, schedule: Q01DX009 (ip), vehicle: other); 108 % of control (dose: 12.5 mg/kg/injection, schedule: Q01DX009 (ip), vehicle: other); 114 % of control (dose: 25.0 mg/kg/injection, schedule: Q01DX009 (ip), vehicle: other); 115 % of control (dose: 50.0 mg/kg/injection, schedule: Q01DX009 (ip), vehicle: other).

With `CCCCCCCCCCC(OC(C)=O)C1CCC(C2CCC(C(O)CCCCCCCCCCCCC3C=C(C)OC3=O)O2)O1` (stereo not drawn), the T/C was 97 % of control (dose: 0.25 mg/kg/injection, schedule: Q01DX009 (ip), vehicle: water); 95 % of control (dose: 0.5 mg/kg/injection, schedule: Q01DX009 (ip), vehicle: water); 93 % of control (dose: 1.0 mg/kg/injection, schedule: Q01DX009 (ip), vehicle: water); 100 % of control (dose: 2.0 mg/kg/injection, schedule: Q01DX009 (ip), vehicle: water); 100 % of control (dose: 4.0 mg/kg/injection, schedule: Q01DX009 (ip), vehicle: water).

`CCCOC(=O)c1ccc(O)cc1`: the T/C under setting [1] was 103 % of control; the T/C under setting [2] was 109 % of control; the T/C under setting [3] was 109 % of control; the T/C under setting [4] was 89 % of control; the T/C under setting [5] was 107 % of control; the T/C under setting [6] was 100 % of control.

Consider `C=C(C)[C@]12CC(C)C34OC(/C=C\C=C\CCCCCCCCC)(O[C@@H]1[C@@H]3[C@@H]1O[C@]1(CO)[C@@H](O)[C@]1(O)C(=O)C(C)=C[C@@H]41)O2` (stereo partly drawn), for which the T/C by setting is: (dose: 0.09 mg/kg/injection, schedule: Q01DX009 (ip), vehicle: distilled water + alcohol) 110 % of control; (dose: 0.18 mg/kg/injection, schedule: Q01DX009 (ip), vehicle: distilled water + alcohol) 110 % of control; (dose: 0.37 mg/kg/injection, schedule: Q01DX009 (ip), vehicle: distilled water + alcohol) 104 % of control.

As to `N#CC(=C1C=CC(=NO)C=C1)c1ccc(Cl)cc1`, the T/C by setting is: under setting [7], 101 % of control; under setting [1], 105 % of control; under setting [2], 99 % of control; under setting [3], 99 % of control; under setting [4], 98 % of control; under setting [5], 97 % of control.

In the case of `C/C=C(\C)c1cc(=O)c2c(C)cc3c(c2o1)C(=O)c1c(O)c(C2CC(C)(N(C)C)C(OC(C)=O)C(C)O2)cc(C2CC(N(C)C)C(O)C(C)O2)c1C3=O` (stereo not drawn), the T/C runs as follows: (dose: 0.15 mg/kg/injection, schedule: Q01DX009 (ip), vehicle: saline) 110 % of control; (dose: 0.15 mg/kg/injection, schedule: Q01DX009 (ip), vehicle: suspension in saline) 102 % of control; (dose: 0.31 mg/kg/injection, schedule: Q01DX009 (ip), vehicle: suspension in saline) 114 % of control; (dose: 0.62 mg/kg/injection, schedule: Q01DX009 (ip), vehicle: suspension in saline) 109 % of control.

Turning to `NC(CSSCC(N)C(=O)O)C(=O)O` (stereo not drawn), the T/C by setting is: under setting [4], 101 % of control; under setting [5], 103 % of control; under setting [6], 117 % of control; (dose: 800.0 mg/kg/injection, schedule: Q01DX009 (ip), vehicle: saline with Tween-80) 102 % of control.

Regarding `O=C1c2ccccc2C(=O)c2c(NCCNCCO)ccc(NCCNCCO)c21`, the T/C was 151 % of control (dose: 1.0 mg/kg/injection, schedule: Q01DX009 (ip), vehicle: other); 180 % of control and 186 % of control (dose: 2.0 mg/kg/injection, schedule: Q01DX009 (ip), vehicle: other); 195 % of control (dose: 2.5 mg/kg/injection, schedule: Q01DX009 (ip), vehicle: water); 195 % of control and 248 % of control (dose: 4.0 mg/kg/injection, schedule: Q01DX009 (ip), vehicle: other); 179 % of control (dose: 4.0 mg/kg/injection, schedule: Q01DX009 (ip), vehicle: saline); 205 % of control (dose: 5.0 mg/kg/injection, schedule: Q01DX009 (ip), vehicle: water). For the same compound, the T/C reads like this: (dose: 8.0 mg/kg/injection, schedule: Q01DX009 (ip), vehicle: other) 218 % of control and 243 % of control; (dose: 8.0 mg/kg/injection, schedule: Q01DX009 (ip), vehicle: saline) 234 % of control; (dose: 10.0 mg/kg/injection, schedule: Q01DX009 (ip), vehicle: water) 215 % of control; (dose: 16.0 mg/kg/injection, schedule: Q01DX009 (ip), vehicle: other) 215 % of control and 231 % of control; (dose: 16.0 mg/kg/injection, schedule: Q01DX009 (ip), vehicle: saline) 292 % of control; (dose: 20.0 mg/kg/injection, schedule: Q01DX009 (ip), vehicle: water) 220 % of control. The T/C was 292 % of control (dose: 32.0 mg/kg/injection, schedule: Q01DX009 (ip), vehicle: saline) and 153 % of control (dose: 62.5 mg/kg/injection, schedule: Q01DX001 (ip), vehicle: saline).

Turning to `CCC(C)C(O)C(C)C(=O)C(C)/C=C(\C)CC(C)C1OC(=O)C1CC` (stereo not drawn), the T/C reads like this: (dose: 0.25 mg/kg/injection, schedule: Q01DX009 (ip), vehicle: saline + alcohol) 104 % of control; (dose: 0.5 mg/kg/injection, schedule: Q01DX009 (ip), vehicle: saline + alcohol) 98 % of control and 104 % of control; (dose: 1.0 mg/kg/injection, schedule: Q01DX009 (ip), vehicle: saline + alcohol) 109 % of control and 100 % of control; (dose: 2.0 mg/kg/injection, schedule: Q01DX009 (ip), vehicle: saline + alcohol) 98 % of control and 103 % of control.

`CC(=O)C[n+]1ccc(C)cc1Sc1ccccc1C`: the T/C reads like this: under setting [1], 97 % of control; under setting [2], 97 % of control; under setting [3], 96 % of control; under setting [4], 100 % of control; under setting [5], 101 % of control.

Turning to `ClCCCN1CCN(CCCCl)CC1`, the T/C reads like this: (dose: 6.25 mg/kg/injection, schedule: Q01DX009 (ip), vehicle: distilled water + alcohol) 109 % of control and 98 % of control; (dose: 12.5 mg/kg/injection, schedule: Q01DX009 (ip), vehicle: distilled water + alcohol) 102 % of control and 104 % of control; (dose: 25.0 mg/kg/injection, schedule: Q01DX009 (ip), vehicle: distilled water + alcohol) 108 % of control and 105 % of control; (dose: 50.0 mg/kg/injection, schedule: Q01DX009 (ip), vehicle: distilled water + alcohol) 118 % of control and 107 % of control; (dose: 100.0 mg/kg/injection, schedule: Q01DX009 (ip), vehicle: distilled water + alcohol) 115 % of control and 118 % of control.

In the case of `O=NNc1ccc(Br)cn1`, the T/C is, setting by setting: (dose: 1.56 mg/kg/injection, schedule: Q01DX009 (ip), vehicle: water) 110 % of control and 112 % of control; (dose: 3.12 mg/kg/injection, schedule: Q01DX009 (ip), vehicle: water) 119 % of control and 124 % of control; under setting [8], 158 % of control and 170 % of control.

For the compound `CC1C(c2ccccc2)OC(N2CCOCC2)C(C)(C)CN1C` (stereo not drawn), the T/C is, setting by setting: under setting [3], 103 % of control; under setting [4], 99 % of control; under setting [5], 96 % of control; under setting [6], 100 % of control.

As to `ClCC[N+]12CC[N+](CCCl)(CC1)C2`, the T/C runs as follows: under setting [8], 98 % of control; (dose: 25.0 mg/kg/injection, schedule: Q01DX009 (ip), vehicle: water) 114 % of control; (dose: 50.0 mg/kg/injection, schedule: Q01DX009 (ip), vehicle: water) 104 % of control; (dose: 100.0 mg/kg/injection, schedule: Q01DX009 (ip), vehicle: water) 108 % of control.

As to `O=C([O][Bi]([c]1ccccc1)[c]1ccccc1)c1ccccc1`, the T/C is 101 % of control under setting [9], 96 % of control under setting [10] and 88 % of control under setting [11].

On to `Clc1ccccc1N1CCN(CCCN2CCN(c3ccccc3Cl)CC2)CC1`, for which the T/C reads like this: (dose: 3.13 mg/kg/injection, schedule: Q01DX009 (ip), vehicle: saline with Tween-80) 100 % of control; under setting [7], 95 % of control; under setting [1], 94 % of control; under setting [2], 99 % of control.

`COc1cc(C(=O)c2cc3c(cc2C)OCO3)cc(OC)c1OC`: the T/C is, setting by setting: under setting [9], 94 % of control; under setting [10], 100 % of control; under setting [11], 108 % of control; (dose: 50.0 mg/kg/injection, schedule: Q01DX009 (ip), vehicle: Klucel (hydroxypropylcellulose) (HPC)) 117 % of control and 106 % of control.
